# Source: patent US12428369B2, “Crystal form of aromatic vinyl derivatives, and preparation method therefor and use thereof” (GUANGZHOU MAXINOVEL PHARMACEUTICALS CO., LTD., priority 2020, dated 2025)
# Experiments:
# PD-1 and PD-L1 = PD-1 and PD-L1 (Homo sapiens, UniProt Q9NZQ7); details: as disclosed in patent CN109988144A; cited from earlier work
# [1] = Dynamic vapor sorption (DVS) analysis; assay type: physicochemical; details: 25° C.; for hygroscopicity: assessment in words
# Protocol: (§1) The hygroscopic characteristics of the sample were tested when the humidity changed from 0% RH to 95% RH, and the dehumidifying characteristics of the sample were tested when the humidity changed from 95% RH to 0% RH. The humidity change in each step size was 5% RH, the equilibrium standard was that the weight change rate within 10 min was less than 0.01%/min, and the longest equilibrium time was 2 hours.
# as §1, with “5” for “10”
# [2] = Equilibrium solubility and dissolution rate in water, SGF, FaSSIF, FeSSIF; assay type: physicochemical; details: for solubility at 0.5 h / solubility at 2 h / solubility at 24 h: 37 °C, thermodynamic from solid; for Solubility: 37° C.
# Protocol: To further study whether the equilibrium solubility and dissolution rate of crystal forms A, B and C are different in pure water and physiological related media in vivo, the equilibrium solubility and dissolution rate of […] crystal forms in water, simulated gastric fluid (SGF), fasted-state simulated intestinal fluid (FaSSIF) and fed state simulated intestinal fluid (FeSSIF) were tested respectively.
# [3] = Solid-state stability: content and related substances by HPLC; assay type: physicochemical
# Protocol: (§2) The samples of crystal forms A, B, and C were weighed and added to a 20 mL colorless transparent glass bottle, respectively, and the sample bottles were respectively placed under the corresponding influencing factors and acceleration conditions (the sample bottles under humidity conditions were sealed with tin foil and placed with holes, and the other samples were covered tightly and placed), taken out after being placed for 1 week and 2 weeks respectively, and the sample content and related substances under various conditions were detected by HPLC; according to the same method as above, samples were respectively weighed and placed under a corresponding influencing factor and accelerated condition, and were taken out after being placed for 2 weeks for observing the appearance and XRPD characterization of each sample, and the physical stability of each crystal form was examined, and the test methods are detailed in table 14 and table 15; at the same time, 2 samples of the crystal forms A, B, and C of the compound as shown in formula I were respectively weighed accurately into 20 mL colorless transparent glass bottles and covered tightly, placed in a −20° C. refrigerator, and taken out as a standard for HPLC analysis at 2 weeks, and the test results are detailed in table 16 and table 17.
# [4] = Solid-state stability: appearance and crystal form (XRPD); assay type: physicochemical; details: for physical stability: four storage conditions
# Protocol: as §2
# [5] = Acceleration (40° C./75% RH), 1 week
# [6] = Acceleration (40° C./75% RH), 2 weeks
# [7] = High humidity (92.5% RH), 1 week
# [8] = High humidity (92.5% RH), 2 weeks
# [9] = High temperature (60° C.), 1 week
# [10] = High temperature (60° C.), 2 weeks
# [11] = illumination (4500 LuX), 1 week
# [12] = illumination (4500 LuX), 2 weeks
# [13] = Illumination (4500 Lux), 2 weeks
# [14] = high temperature, high humidity, illumination and acceleration, 2 weeks (conclusion)
# Sequence of PD-1 and PD-L1 (Q9NZQ7 19-238 limits assumed): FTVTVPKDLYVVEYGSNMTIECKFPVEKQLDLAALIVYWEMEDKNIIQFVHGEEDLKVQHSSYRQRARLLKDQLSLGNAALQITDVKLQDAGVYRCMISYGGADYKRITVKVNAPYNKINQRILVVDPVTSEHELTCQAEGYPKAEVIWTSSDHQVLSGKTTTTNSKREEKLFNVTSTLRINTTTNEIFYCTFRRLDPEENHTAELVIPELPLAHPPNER
compound,measurement,setting,value
Cc1c(/C=C/c2cc(CN[C@@](C)(CO)C(=O)O)ccc2C(F)(F)F)cccc1-c1ccccc1 [Compound I],inhibitory effect on the combination of PD-1 and PD-L1,PD-1 and PD-L1,strong inhibitory effect
Cc1c(/C=C/c2cc(CN[C@@](C)(CO)C(=O)O)ccc2C(F)(F)F)cccc1-c1ccccc1 [Crystal form A],hygroscopic weight gain,[1]; 80% RH,0.310%
same,hygroscopic weight gain,[1]; 95% RH,0.409%
same,hygroscopicity,[1],slightly hygroscopic
same,solubility at 0.5 h,"[2]; FaSSIF as printed (second set of rows), fessif, FaSSIF, 0.5 hours",183 µg/mL
same,solubility at 2 h,"[2]; FaSSIF as printed (second set of rows), fessif, FaSSIF, 2 hours",177 µg/mL
same,solubility at 24 h,"[2]; FaSSIF as printed (second set of rows), fessif, FaSSIF, 24 hours",170 µg/mL
same,Solubility,"[2]; FaSSIF, 2 hours",2.0 µg/mL
same,Solubility,"[2]; SGF, 0.5 hours",0.4 µg/mL
same,Solubility,"[2]; SGF, 2 hours",0.3 µg/mL
same,Solubility,"[2]; SGF, 24 hours",0.1 µg/mL
same,Solubility,"[2]; Water, 24 hours",6.1 µg/mL
same,solubility at 0.5 h,"[2]; fasted-state simulated intestinal fluid (FaSSIF), fassif, 0.5 hours",8.7 µg/mL
same,solubility at 24 h,"[2]; fasted-state simulated intestinal fluid (FaSSIF), fassif, 24 hours",4.3 µg/mL
same,solubility at 0.5 h,"[2]; water, 0.5 hours",1.5 µg/mL
same,solubility at 2 h,"[2]; water, 2 hours",6 µg/mL
same,Content,[3]; [5],104.34%
same,Total related substances,[3]; [5],0.04%
same,Content,[3]; [6],104.13%
same,Total related substances,[3]; [6],0.03%
same,Total related substances,"[3]; Control, −20° C., 2 weeks",0.00%
same,Content,[3]; [7],104.75%
same,Total related substances,[3]; [7],0.10%
same,Content,[3]; [8],104.25%
same,Total related substances,[3]; [8],0.12%
same,Content,[3]; [9],100.69%
same,Total related substances,[3]; [9],0.02%
same,Content,[3]; [10],104.03%
same,Total related substances,[3]; [10],0.03%
same,Content,[3]; [11],96.10%
same,Total related substances,[3]; [11],3.94%
same,Content,[3]; [12],88.50%
same,Total related substances,[3]; [12],11.18%
same,Appearance,[4]; [6],Off-white
same,Crystal form (XRPD) after storage,[4]; [6],Crystal form A
same,Appearance,"[4]; Control, −20° C., 2 weeks",Off-white
same,Crystal form (XRPD) after storage,"[4]; Control, −20° C., 2 weeks, listed as Crystal form A-Control",Crystal form A
same,Appearance,[4]; [8],Off-white
same,Crystal form (XRPD) after storage,[4]; [8],Crystal form A
same,Appearance,[4]; [10],Off-white
same,Crystal form (XRPD) after storage,[4]; [10],Crystal form A
same,Appearance,[4]; [13],Off-white
same,Crystal form (XRPD) after storage,[4]; [13],Crystal form A
same,physical stability,[4]; 2 weeks (conclusion),good
same,Appearance,[4]; [14],off-white
Cc1c(/C=C/c2cc(CN[C@@](C)(CO)C(=O)O)ccc2C(F)(F)F)cccc1-c1ccccc1 [Crystal form B],hygroscopicity,[1],hygroscopic
same,weight gain,[1]; from 0% RH to 95% RH,7.235%
same,Solubility,"[2]; FaSSIF (rows r12-r14), 0.5 hours, listed as B",13.3 µg/mL
same,Solubility,"[2]; FaSSIF (rows r12-r14), 2 hours, listed as B",8.8 µg/mL
same,Solubility,"[2]; FaSSIF (rows r12-r14), 24 hours, listed as B",8.6 µg/mL
same,Solubility,"[2]; FaSSIF as printed (second set, rows r15-r17), 0.5 hours, listed as B",176.4 µg/mL
same,Solubility,"[2]; FaSSIF as printed (second set, rows r15-r17), 2 hours, listed as B",175.9 µg/mL
same,Solubility,"[2]; FaSSIF as printed (second set, rows r15-r17), 24 hours, listed as B",179.7 µg/mL
same,Solubility,"[2]; SGF, 2 hours",0.1 µg/mL
same,Solubility,"[2]; SGF, 24 hours",0.2 µg/mL
same,Solubility,"[2]; Water, 0.5 hours",2.5 µg/mL
same,Solubility,"[2]; Water, 2 hours",7.5 µg/mL
same,Solubility,"[2]; Water, 24 hours",1.2 µg/mL
same,solubility at 0.5 h,"[2]; simulated gastric fluid (SGF), simulated gastric fluid, SGF, 0.5 hours",0.5 µg/mL
same,Content,[3]; [5],103.22%
same,Total related substances,[3]; [5],0.00%
same,Content,[3]; [6],101.60%
same,Total related substances,[3]; [6],0.00%
same,Total related substances,"[3]; Control, −20° C., 2 weeks",0.00%
same,Content,[3]; [7],100.09%
same,Total related substances,[3]; [7],0.00%
same,Content,[3]; [8],100.83%
same,Total related substances,[3]; [8],0.00%
same,Content,[3]; [9],100.70%
same,Total related substances,[3]; [9],0.00%
same,Content,[3]; [10],100.15%
same,Total related substances,[3]; [10],0.00%
same,Content,[3]; [11],100.02%
same,Total related substances,[3]; [11],0.39%
same,Content,[3]; [12],99.69%
same,Total related substances,[3]; [12],1.28%
same,Appearance,[4]; [6],Off-white
same,Crystal form (XRPD) after storage,[4]; [6],Crystal form B
same,Appearance,"[4]; Control, −20° C., 2 weeks",Off-white
same,Crystal form (XRPD) after storage,"[4]; Control, −20° C., 2 weeks, listed as Crystal form B-Control",Crystal form B
same,Appearance,[4]; [8],Off-white
same,Crystal form (XRPD) after storage,[4]; [8],Crystal form B
same,Appearance,[4]; [10],Off-white
same,Crystal form (XRPD) after storage,[4]; [10],Mixed crystal form
same,Crystal form (XRPD) after storage,"[4]; High temperature (60° C.), 2 weeks, listed as crystal form B",converted into other crystal form
same,Appearance,[4]; [13],Off-white
same,Crystal form (XRPD) after storage,[4]; [13],Crystal form B
same,physical stability,[4]; 2 weeks (conclusion),poor
same,Appearance,[4]; [14],off-white
